System: subjects with advanced malignancies
Experiment: Phase 1 dose escalation: toxicity, safety and tolerability (DLT, MAD, RP2D, AEs)
[1] = 7.11 mg/m^2 (n = 7), All grades

Procedure: Subjects continued on treatment until there was disease progression, unacceptable toxicity, or the subject withdrew consent. The trial employed an accelerated titration design [16] starting at a dose of 0.33 mg/m^2 (one-sixth of the highest nontoxic dose in dogs).
the dose was doubled in sequential subjects until a DLT was observed or a subject experienced grade 2 toxicity [16]. In the case of an observed grade 2 toxicity, a second subject was enrolled at the same dose level. If the second subject also experienced a grade 2 toxicity, 2 additional subjects were accrued at that dose level for a total of 4 subjects. […] Each subject was allocated to only a single dose level of drug. Dose delay or modification was permitted based on laboratory and clinical assessment performed on the day of treatment.
Dose-limiting toxicities were determined during the first cycle for each dose level. A DLT was defined as any grade 3 or 4 hematologic toxicity lasting for at least 1 week, or as any grade 3 or 4 nonhematologic toxicity. […] Normal alkaline phosphatase level (< grade 1) at screening that rose to greater than or equal to grade 3; grade 1 or 2 alkaline phosphatase level at screening that rose to grade 4; grade 1 or 2 aspartate aminotransferase (AST) and/or alanine aminotransferase (ALT) levels at screening that doubled from baseline to become greater than or equal to grade 3; and any other abnormal nonhematology laboratory value greater than or equal to grade 3 that required medical intervention to treat, led to hospitalization, or persisted for at least 1 week were also considered DLTs.
Adverse events were graded based on the National Cancer Institute Common Terminology Criteria for Adverse Events (NCI CTCAE version 3.0) and were coded using the Medical Dictionary for Regulatory Activities (MedDRA version 13.0).

Question: With `CCc1cnn2c(NCc3ccc[n+]([O-])c3)cc(N3CCCC[C@H]3CCO)nc12` [dinaciclib] as the compound, how does the “TEAE: Abdominal distension” value [1] read?
Answer: 1 (14) n (%)

Question: What about the “TEAE: Abdominal pain” value [1] of the same compound?
Answer: 3 (43) n (%)

Question: And the “TEAE: Anemia” value [1]?
Answer: 3 (43) n (%)

Question: What about the “TEAE: Asthenia” value [1] of the same compound?
Answer: 2 (29) n (%)

Question: What about the “TEAE: Back pain” value [1] of the same compound?
Answer: 1 (14) n (%)

Question: And the “TEAE: Constipation” value [1]?
Answer: 1 (14) n (%)

Question: And the “TEAE: Cough” value [1]?
Answer: 0 n (%)

Question: And the “TEAE: Decreased appetite” value [1]?
Answer: 2 (29) n (%)

Question: And the “TEAE: Dehydration” value [1]?
Answer: 1 (14) n (%)

Question: What about the “TEAE: Diarrhea” value [1] of the same compound?
Answer: 1 (14) n (%)

Question: What about the “TEAE: Dizziness” value [1] of the same compound?
Answer: 3 (43) n (%)

Question: And the “TEAE: Dyspnea” value [1]?
Answer: 3 (43) n (%)

Question: What about the “TEAE: Fatigue” value [1] of the same compound?
Answer: 3 (43) n (%)

Question: What about the “TEAE: Flatulence” value [1] of the same compound?
Answer: 2 (29) n (%)

Question: And the “TEAE: Hyperbilirubinemia” value [1]?
Answer: 0 n (%)

Question: What about the “TEAE: Hyperglycemia” value [1] of the same compound?
Answer: 0 n (%)

Question: What about the “TEAE: Hyperuricemia” value [1] of the same compound?
Answer: 0 n (%)

Question: And the “TEAE: Hypokalemia” value [1]?
Answer: 1 (14) n (%)

Question: What about the “TEAE: Hypophosphatemia” value [1] of the same compound?
Answer: 0 n (%)

Question: And the “TEAE: Increased ALP” value [1]?
Answer: 0 n (%)

Question: What about the “TEAE: Increased ALT” value [1] of the same compound?
Answer: 0 n (%)

Question: What about the “TEAE: Increased AST” value [1] of the same compound?
Answer: 0 n (%)

Question: What about the “TEAE: Nausea” value [1] of the same compound?
Answer: 5 (71) n (%)

Question: And the “TEAE: Neutropenia” value [1]?
Answer: 0 n (%)

Question: What about the “TEAE: Peripheral edema” value [1] of the same compound?
Answer: 1 (14) n (%)

Question: What about the “TEAE: Pyrexia” value [1] of the same compound?
Answer: 1 (14) n (%)

Question: What about the “TEAE: Subjects with any AE” value [1] of the same compound?
Answer: 7 (100) n (%)

Question: What about the “TEAE: Urinary tract infection” value [1] of the same compound?
Answer: 2 (29) n (%)

Question: What about the “TEAE: Vomiting” value [1] of the same compound?
Answer: 2 (29) n (%)

Question: And the “TEAE: Weight decreased” value [1]?
Answer: 1 (14) n (%)

Question: And the “TEAE: Abdominal distension” value (7.11 mg/m^2 (n = 7), Grade 3–4)?
Answer: 0 n (%)

Question: And the “TEAE: Abdominal pain” value (7.11 mg/m^2 (n = 7), Grade 3–4)?
Answer: 1 (14) n (%)

Question: What about the “TEAE: Anemia” value (7.11 mg/m^2 (n = 7), Grade 3–4) of the same compound?
Answer: 2 (29) n (%)

Question: And the “TEAE: Asthenia” value (7.11 mg/m^2 (n = 7), Grade 3–4)?
Answer: 0 n (%)

Question: What about the “TEAE: Back pain” value (7.11 mg/m^2 (n = 7), Grade 3–4) of the same compound?
Answer: 0 n (%)

Question: What about the “TEAE: Constipation” value (7.11 mg/m^2 (n = 7), Grade 3–4) of the same compound?
Answer: 0 n (%)

Question: What about the “TEAE: Cough” value (7.11 mg/m^2 (n = 7), Grade 3–4) of the same compound?
Answer: 0 n (%)

Question: What about the “TEAE: Decreased appetite” value (7.11 mg/m^2 (n = 7), Grade 3–4) of the same compound?
Answer: 0 n (%)

Question: What about the “TEAE: Dehydration” value (7.11 mg/m^2 (n = 7), Grade 3–4) of the same compound?
Answer: 0 n (%)

Question: What about the “TEAE: Diarrhea” value (7.11 mg/m^2 (n = 7), Grade 3–4) of the same compound?
Answer: 0 n (%)

Question: What about the “TEAE: Dizziness” value (7.11 mg/m^2 (n = 7), Grade 3–4) of the same compound?
Answer: 0 n (%)

Question: What about the “TEAE: Dyspnea” value (7.11 mg/m^2 (n = 7), Grade 3–4) of the same compound?
Answer: 1 (14) n (%)

Question: And the “TEAE: Fatigue” value (7.11 mg/m^2 (n = 7), Grade 3–4)?
Answer: 0 n (%)

Question: What about the “TEAE: Flatulence” value (7.11 mg/m^2 (n = 7), Grade 3–4) of the same compound?
Answer: 0 n (%)

Question: What about the “TEAE: Hyperbilirubinemia” value (7.11 mg/m^2 (n = 7), Grade 3–4) of the same compound?
Answer: 0 n (%)

Question: And the “TEAE: Hyperglycemia” value (7.11 mg/m^2 (n = 7), Grade 3–4)?
Answer: 0 n (%)

Question: What about the “TEAE: Hyperuricemia” value (7.11 mg/m^2 (n = 7), Grade 3–4) of the same compound?
Answer: 0 n (%)

Question: And the “TEAE: Hypokalemia” value (7.11 mg/m^2 (n = 7), Grade 3–4)?
Answer: 0 n (%)

Question: And the “TEAE: Hypophosphatemia” value (7.11 mg/m^2 (n = 7), Grade 3–4)?
Answer: 0 n (%)

Question: And the “TEAE: Increased ALP” value (7.11 mg/m^2 (n = 7), Grade 3–4)?
Answer: 0 n (%)

Question: And the “TEAE: Increased ALT” value (7.11 mg/m^2 (n = 7), Grade 3–4)?
Answer: 0 n (%)

Question: And the “TEAE: Increased AST” value (7.11 mg/m^2 (n = 7), Grade 3–4)?
Answer: 0 n (%)

Question: And the “TEAE: Nausea” value (7.11 mg/m^2 (n = 7), Grade 3–4)?
Answer: 0 n (%)

Question: What about the “TEAE: Neutropenia” value (7.11 mg/m^2 (n = 7), Grade 3–4) of the same compound?
Answer: 0 n (%)

Question: And the “TEAE: Peripheral edema” value (7.11 mg/m^2 (n = 7), Grade 3–4)?
Answer: 0 n (%)

Question: What about the “TEAE: Pyrexia” value (7.11 mg/m^2 (n = 7), Grade 3–4) of the same compound?
Answer: 0 n (%)

Question: What about the “TEAE: Subjects with any AE” value (7.11 mg/m^2 (n = 7), Grade 3–4) of the same compound?
Answer: 4 (57) n (%)

Question: And the “TEAE: Urinary tract infection” value (7.11 mg/m^2 (n = 7), Grade 3–4)?
Answer: 0 n (%)

Question: What about the “TEAE: Vomiting” value (7.11 mg/m^2 (n = 7), Grade 3–4) of the same compound?
Answer: 1 (14) n (%)

Question: What about the “TEAE: Weight decreased” value (7.11 mg/m^2 (n = 7), Grade 3–4) of the same compound?
Answer: 0 n (%)

Question: What about the “TEAE: Abdominal distension” value (10 mg/m^2 (n = 3), All grades) of the same compound?
Answer: 0 n (%)

Question: What about the “TEAE: Abdominal pain” value (10 mg/m^2 (n = 3), All grades) of the same compound?
Answer: 1 (33) n (%)

Question: What about the “TEAE: Anemia” value (10 mg/m^2 (n = 3), All grades) of the same compound?
Answer: 0 n (%)

Question: What about the “TEAE: Asthenia” value (10 mg/m^2 (n = 3), All grades) of the same compound?
Answer: 0 n (%)

Question: What about the “TEAE: Back pain” value (10 mg/m^2 (n = 3), All grades) of the same compound?
Answer: 0 n (%)

Question: What about the “TEAE: Constipation” value (10 mg/m^2 (n = 3), All grades) of the same compound?
Answer: 2 (67) n (%)

Question: And the “TEAE: Cough” value (10 mg/m^2 (n = 3), All grades)?
Answer: 0 n (%)

Question: What about the “TEAE: Decreased appetite” value (10 mg/m^2 (n = 3), All grades) of the same compound?
Answer: 0 n (%)

Question: And the “TEAE: Dehydration” value (10 mg/m^2 (n = 3), All grades)?
Answer: 0 n (%)

Question: And the “TEAE: Diarrhea” value (10 mg/m^2 (n = 3), All grades)?
Answer: 1 (33) n (%)

Question: And the “TEAE: Dizziness” value (10 mg/m^2 (n = 3), All grades)?
Answer: 0 n (%)

Question: And the “TEAE: Dyspnea” value (10 mg/m^2 (n = 3), All grades)?
Answer: 0 n (%)

Question: What about the “TEAE: Fatigue” value (10 mg/m^2 (n = 3), All grades) of the same compound?
Answer: 0 n (%)

Question: And the “TEAE: Flatulence” value (10 mg/m^2 (n = 3), All grades)?
Answer: 0 n (%)

Question: What about the “TEAE: Hyperbilirubinemia” value (10 mg/m^2 (n = 3), All grades) of the same compound?
Answer: 0 n (%)

Question: What about the “TEAE: Hyperglycemia” value (10 mg/m^2 (n = 3), All grades) of the same compound?
Answer: 1 (33) n (%)

Question: What about the “TEAE: Hyperuricemia” value (10 mg/m^2 (n = 3), All grades) of the same compound?
Answer: 0 n (%)

Question: And the “TEAE: Hypokalemia” value (10 mg/m^2 (n = 3), All grades)?
Answer: 1 (33) n (%)

Question: What about the “TEAE: Hypophosphatemia” value (10 mg/m^2 (n = 3), All grades) of the same compound?
Answer: 0 n (%)

Question: What about the “TEAE: Increased ALP” value (10 mg/m^2 (n = 3), All grades) of the same compound?
Answer: 0 n (%)

Question: What about the “TEAE: Increased ALT” value (10 mg/m^2 (n = 3), All grades) of the same compound?
Answer: 0 n (%)

Question: And the “TEAE: Increased AST” value (10 mg/m^2 (n = 3), All grades)?
Answer: 0 n (%)

Question: And the “TEAE: Nausea” value (10 mg/m^2 (n = 3), All grades)?
Answer: 1 (33) n (%)

Question: What about the “TEAE: Neutropenia” value (10 mg/m^2 (n = 3), All grades) of the same compound?
Answer: 1 (33) n (%)

Question: And the “TEAE: Peripheral edema” value (10 mg/m^2 (n = 3), All grades)?
Answer: 0 n (%)

Question: And the “TEAE: Pyrexia” value (10 mg/m^2 (n = 3), All grades)?
Answer: 0 n (%)

Question: What about the “TEAE: Subjects with any AE” value (10 mg/m^2 (n = 3), All grades) of the same compound?
Answer: 3 (100) n (%)

Question: And the “TEAE: Urinary tract infection” value (10 mg/m^2 (n = 3), All grades)?
Answer: 1 (33) n (%)

Question: And the “TEAE: Vomiting” value (10 mg/m^2 (n = 3), All grades)?
Answer: 2 (67) n (%)

Question: And the “TEAE: Weight decreased” value (10 mg/m^2 (n = 3), All grades)?
Answer: 0 n (%)

Question: And the “TEAE: Abdominal distension” value (10 mg/m^2 (n = 3), Grade 3–4)?
Answer: 0 n (%)

Question: And the “TEAE: Abdominal pain” value (10 mg/m^2 (n = 3), Grade 3–4)?
Answer: 0 n (%)

Question: What about the “TEAE: Anemia” value (10 mg/m^2 (n = 3), Grade 3–4) of the same compound?
Answer: 0 n (%)

Question: What about the “TEAE: Asthenia” value (10 mg/m^2 (n = 3), Grade 3–4) of the same compound?
Answer: 0 n (%)

Question: What about the “TEAE: Back pain” value (10 mg/m^2 (n = 3), Grade 3–4) of the same compound?
Answer: 0 n (%)

Question: And the “TEAE: Constipation” value (10 mg/m^2 (n = 3), Grade 3–4)?
Answer: 0 n (%)

Question: What about the “TEAE: Cough” value (10 mg/m^2 (n = 3), Grade 3–4) of the same compound?
Answer: 0 n (%)

Question: What about the “TEAE: Decreased appetite” value (10 mg/m^2 (n = 3), Grade 3–4) of the same compound?
Answer: 0 n (%)

Question: And the “TEAE: Dehydration” value (10 mg/m^2 (n = 3), Grade 3–4)?
Answer: 0 n (%)

Question: What about the “TEAE: Diarrhea” value (10 mg/m^2 (n = 3), Grade 3–4) of the same compound?
Answer: 0 n (%)

Question: What about the “TEAE: Dizziness” value (10 mg/m^2 (n = 3), Grade 3–4) of the same compound?
Answer: 0 n (%)

Question: What about the “TEAE: Dyspnea” value (10 mg/m^2 (n = 3), Grade 3–4) of the same compound?
Answer: 0 n (%)

Question: And the “TEAE: Fatigue” value (10 mg/m^2 (n = 3), Grade 3–4)?
Answer: 0 n (%)

Question: What about the “TEAE: Flatulence” value (10 mg/m^2 (n = 3), Grade 3–4) of the same compound?
Answer: 0 n (%)

Question: What about the “TEAE: Hyperbilirubinemia” value (10 mg/m^2 (n = 3), Grade 3–4) of the same compound?
Answer: 0 n (%)

— PMC3853718 (Journal of Translational Medicine, 2013)
